Test results published in US9090583B2, “Benzopyrone estrogen receptor regulator” (BEIJING SHENOGEN PHARMA GROUP LTD., priority 2010, dated 2015).
Read-outs that look alike come from different tables or passages of the source.

Assays:
[1] = tested on: MDA-MB-231 cells; test: CellTiter-Glo Luminescent Cell Viability Assay on ER-negative breast cancer MDA-MB-231 cells; format: cell-based; details: average ± standard deviation when tested more than 3 times, read-out: Inhibition of the viability of breast cancer cells, IC50
Protocol: A: In Vitro CellTiter-Glo® Luminescent Cell Viability Assay on ER-Negative Breast Cancer MDA-MB-231 Cells:
MDA-MB-231 cells were maintained at 37° C., under 5% CO2 atmosphere in DMEM containing 10% fetal calf serum. The cells were seeded on 96-well plate at a density of 6×10^3 cells per well. MDA-MB-231 cells were treated with a test compound dissolved in DMSO at the concentrations of zero, 0.3 μM, 0.5 μM, 1 μM, 2 μM, 3 μM, 5 μM, 10 μM, 20 μM, 30 μM, 50 μM and 100 μM for 72 hours. Treated cells were examined by CellTiter-Glo® Luminescent Cell Viability Assay Kit (Promega), and luminescence values were recorded with Envision.

[2] = tested on: MCF7 cells; test: CellTiter-Glo Luminescent Cell Viability Assay on ER-positive breast cancer MCF-7 cells; format: cell-based, human; details: average ± standard deviation when tested more than 3 times, read-out: Inhibition of the viability of breast cancer cells, IC50
Source text: B: In Vitro CellTiter-Glo® Luminescent Cell Viability Assay on ER-Positive Breast Cancer MCF-7 Cells:
MCF7 cells are breast cancer cell lines that highly express ER-66, ER-46 and ER-36. (Relevance of breast cancer cell lines as models for breast tumours: an update. Marc Lacroix, Guy Leclercq, Breast Cancer Research and Treatment (2004) 83, 249-289; Wang et al., Proc. Natl. Acad. Sci. U.S.A. 103:9063-9068 (2006)). MCF7 cells were obtained from ATCC and maintained in Dulbecco's Modified Eagles Medium (DMEM) and 10% fetal calf serum at 37° C., under 5% CO2 atmosphere. The cells were seeded on 96-well plate at a density of 6×10^3 cells per well. MCF7 cells were treated with a test compound dissolved in DMSO at the concentrations of zero, 0.3 μM, 0.5 μM, 1 μM, 2 μM, 3 μM, 5 μM, 10 μM, 20 μM, 30 μM, 50 μM and 100 μM for 72 hours. Treated cells were examined by CellTiter-Glo® Luminescent Cell Viability Assay Kit (Promega), and luminescence values were recorded with Envision.

Row | IC50 ([1]; Homo sapiens, MDA-MB-231, 72 h) | IC50 ([2]; Homo sapiens, MCF7, 72 h) | IC50 ([1]; 72 hours) | IC50 ([2]; 72 hours) | Compound
1 | 31.3 µM | 15.6 µM | – | – | CC(C)=CCc1c(O)c(CC=C(C)C)c2oc(-c3ccc(Cl)c(F)c3)c(C)c(=O)c2c1O [Compound 94, 2-(3-fluoro-4-chlorophenyl)-3-methyl-5,7-dihydroxy-6,8-di(3-methyl-2-buten-1-yl)-4H-benzopyran-4-one]
2 | 8.89 µM | > 100 µM | – | – | CC(C)=CCc1c(O)c(CC=C(C)C)c2oc(-c3ccc(Cl)cc3)cc(=O)c2c1O [Compound 91, 2-(4-chlorophenyl)-5,7-dihydroxy-6,8-di(3-methyl-2-buten-1-yl)-4H-benzopyran-4-one]
3 | > 100 µM | > 100 µM | – | – | COc1c(C2CCCC2)oc2c(CC=C(C)C)c(O)c(CC=C(C)C)c(O)c2c1=O [Compound 36, 2-cyclopentyl-5,7-dihydroxy-3-methoxy-6,8-di(3-methyl-2-buten-1-yl)-4H-benzopyran-4-one]
4 | – | – | 25 µM | 37.2 µM | COc1c(-c2ccnn2C)oc2c(CC=C(C)C)c(O)c(CC=C(C)C)c(O)c2c1=O [Compound 48, 2-(1-methyl-1H-pyrazol-5-yl)-5,7-dihydroxy-3-methoxy-6,8-di(3-methyl-2-buten-1-yl)-4H-benzopyran-4-one]
5 | – | – | 25.6 µM | 40.1 µM | COc1c(-c2ccc(C(C)C)cc2)oc2c(CC=C(C)C)c(O)c(CC=C(C)C)c(O)c2c1=O [Compound 17, 2-(4-isopropylphenyl)-5,7-dihydroxy-3-methoxy-6,8-di(3-methyl-2-butylene-1-yl)-4H-benzopyran-4-one]
6 | – | – | 17 ± 4.97 µM | 19.5 ± 1.02 µM | COc1c(-c2ccc(Cl)cn2)oc2c(CC=C(C)C)c(O)c(CC=C(C)C)c(O)c2c1=O [Compound 53, 2-(5-chloropyridin-2-yl)-5,7-dihydroxy-3-methoxy-6,8-di(3-3-methyl-2-buten-1-yl)-4H-benzopyran-4-one]
7 | > 100 µM | > 100 µM | – | – | COc1c(CC=C(C)C)c(O)c2c(=O)c(OC)c(-c3ccc(Cl)c(F)c3)oc2c1CC=C(C)C [Compound 82A, 2-(3-fluoro-4-chlorophenyl)-5-hydroxy-3,7-dimethoxy-6,8-di(3-methyl-2-buten-1-yl)-4H-benzopyran-4-one]
8 | 16.3 µM | > 100 µM | – | – | CC(C)=CCc1c(O)c(CC=C(C)C)c2oc(-c3ccc(C)cc3)cc(=O)c2c1O [Compound 87, 2-(4-methylphenyl)-5,7-dihydroxy-6,8-di(3-methyl-2-buten-1-yl)-4H-benzopyran-4-one]
9 | > 100 µM | > 100 µM | – | – | COc1c(-c2cnn(C)c2)oc2c(CC=C(C)C)c(O)c(CC=C(C)C)c(O)c2c1=O [Compound 46, 2-(1-methyl-1H-pyrazol-4-yl)-5,7-dihydroxy-3-methoxy-6,8-di(3-methyl-2-buten-1-yl)-4H-benzopyran-4-one]
10 | 25.1 µM | > 100 µM | – | – | COc1c(-c2ccncc2)oc2c(CC=C(C)C)c(O)c(CC=C(C)C)c(O)c2c1=O [Compound 31, 2-(pyridin-4-yl)-5,7-dihydroxy-3-methoxy-6,8-di(3-methyl-2-buten-1-yl)-4H-benzopyran-4-one]
11 | 21.5 µM | > 100 µM | – | – | CC(C)=CCc1c(O)c(CC=C(C)C)c2oc(-c3cccnc3)cc(=O)c2c1O [Compound 92, 2-(pyridin-3-yl)-5,7-dihydroxy-6,8-di(3-methyl-2-buten-1-yl)-4H-benzopyran-4-one]
12 | – | – | 3.27 µM | 4.66 µM | COc1c(-c2ccc(C(C)O)cc2)oc2c(CC=C(C)C)c(O)c(CC=C(C)C)c(O)c2c1=O (stereo not shown) [Compound 67]
13 | – | – | > 100 µM | > 100 µM | COc1cc(-c2oc3c(CC=C(C)C)c(O)c(CC=C(C)C)c(O)c3c(=O)c2OC)ccc1F [Compound 9, 2-(4-fluoro-3-methoxyphenyl)-5,7-dihydroxy-3-methoxy-6,8-di(3-methyl-2-butylene-1-yl)-4H-benzopyran-4-one]
14 | – | – | 22.7 µM | 35.4 µM | COc1c(-c2ccc(Cl)c(C(F)(F)F)c2)oc2c(CC=C(C)C)c(O)c(CC=C(C)C)c(O)c2c1=O [Compound 13, 2-(4-chloro-3-trifluoromethylphenyl)-5,7-dihydroxy-3-methoxy-6,8-di(3-methyl-2-butylene-1-yl)-4H-benzopyran-4-one]
15 | – | – | 12.6 µM | > 100 µM | COc1c(-c2ccc3c(c2)OCCO3)oc2c(CC=C(C)C)c(O)c(CC=C(C)C)c(O)c2c1=O [Compound 20, 2-(2,3-dihydrobenzo[b][1,4]dioxan-6-yl)-5,7-dihydroxy-3-methoxy-6,8-di(3-methyl-2-buten-1-yl)-4H-benzopyran-4-one]
16 | 43.5 µM | > 100 µM | – | – | COc1c(-c2nccn2C)oc2c(CC=C(C)C)c(O)c(CC=C(C)C)c(O)c2c1=O [Compound 47, 2-(1-methyl-1H-imidazol-2-yl)-5,7-dihydroxy-3-methoxy-6,8-di(3-methyl-2-buten-1-yl)-4H-benzopyran-4-one]
17 | > 100 µM | 65.8 µM | – | – | COc1c(-c2cccs2)oc2c(CC=C(C)C)c(O)c(CC=C(C)C)c(O)c2c1=O [Compound 39, 2-(thiophen-2-yl)-5,7-dihydroxy-3-methoxy-6,8-di(3-methyl-2-buten-1-yl)-4H-benzopyran-4-one]
18 | – | – | 23.6 µM | 13.5 µM | COc1c(-c2ccc(Cl)cc2F)oc2c(CC=C(C)C)c(O)c(CC=C(C)C)c(O)c2c1=O [Compound 14, 2-(2-fluoro-4-chlorophenyl)-5,7-dihydroxy-3-methoxy-6,8-di(3-methyl-2-butylene-1-yl)-4H-benzopyran-4-one]
19 | 12.6 ± 2.4 µM | 10.4 ± 0.22 µM | – | – | COc1c(-c2cccc(F)c2)oc2c(CC=C(C)C)c(O)c(CC=C(C)C)c(O)c2c1=O [Compound 3, 2-(3-fluorophenyl)-5,7-dihydroxy-3-methoxy-6,8-di(3-methyl-2-buten-1-yl)-4H-benzopyran-4-one]
20 | 18.1 ± 4.3 µM | 13.2 µM | – | – | COc1c(-c2cccnc2)oc2c(CC=C(C)C)c(O)c(CC=C(C)C)c(O)c2c1=O [Compound 28, 2-(pyridin-3-yl)-5,7-dihydroxy-3-methoxy-6,8-di(3-methyl-2-buten-1-yl)-4H-benzopyran-4-one]
21 | – | 31.1 µM | > 100 µM | – | COc1c(-c2ccnn2C)oc2c(CC=C(C)C)c(O)c(CC=C(C)C)c(O)c2c1=O [Compound 45, 2-(1-methyl-1H-pyrazol-5-yl)-5,7-dihydroxy-3-methoxy-6,8-di(3-methyl-2-buten-1-yl)-4H-benzopyran-4-one]
22 | > 100 µM | 10.2 µM | – | – | COc1c(-c2ccc(C(C)=O)cc2)oc2c(CC=C(C)C)c(O)c(CC=C(C)C)c(O)c2c1=O [Compound 65, 2-(4-acetylphenyl)-5,7-dihydroxy-3-methoxy-6,8-di(3-methyl-2-buten-1-yl)-4H-benzopyran-4-one]
23 | 10.4 ± 1.93 µM | 6.62 ± 1.93 µM | – | – | CC(C)=CCc1c(O)c(CC=C(C)C)c2oc(-c3ccc(F)c(F)c3)c(O)c(=O)c2c1O [Compound 95, 2-(3,4-difluorophenyl)-3,5,7-trihydroxy-6,8-di(3-methyl-2-buten-1-yl)-4H-benzopyran-4-one]
24 | > 100 µM | > 100 µM | – | – | CC(C)=CCc1c(O)c(CC=C(C)C)c2oc(-c3ccc(F)cc3)cc(=O)c2c1O [Compound 89, 2-(4-fluorophenyl)-5,7-dihydroxy-6,8-di(3-methyl-2-buten-1-yl)-4H-benzopyran-4-one]
25 | 10.4 µM | > 100 µM | – | – | CC(C)=CCc1c(O)c(CC=C(C)C)c2oc(-c3ccc(Cl)c(F)c3)c(O)c(=O)c2c1O [Compound 96, 2-(3-fluoro-4-chlorophenyl)-3,5,7-trihydroxy-6,8-di(3-methyl-2-buten-1-yl)-4H-benzopyran-4-one]
26 | – | – | 10.3 ± 0.38 µM | 7.06 ± 3.16 µM | COc1c(-c2ccc(F)nc2)oc2c(CC=C(C)C)c(O)c(CC=C(C)C)c(O)c2c1=O [Compound 54, 2-(6-fluoropyridin-3-yl)-5,7-dihydroxy-3-methoxy-6,8-di(3-3-methyl-2-buten-1-yl)-4H-benzopyran-4-one]
27 | 5.51 ± 0.02 µM | 4.17 ± 2.45 µM | – | – | COc1c(-c2ccnc(Cl)c2)oc2c(CC=C(C)C)c(O)c(CC=C(C)C)c(O)c2c1=O [Compound 55, 2-(2-chloropyridin-4-yl)-5,7-dihydroxy-3-methoxy-6,8-di(3-methyl-2-buten-1-yl)-4H-benzopyran-4-one]
28 | > 100 µM | > 100 µM | – | – | COc1c(CC=C(C)C)c(O)c2c(=O)c(OC)c(-c3ccc(F)c(F)c3)oc2c1CC=C(C)C [Compound 81A, 2-(3,4-difluorophenyl)-5-hydroxy-3,7-dimethoxy-6,8-di(3-methyl-2-buten-1-yl)-4H-benzopyran-4-one]
29 | – | – | 17.9 µM | 17.8 µM | 2-(benzo[b]thiazol-2-yl)-5,7-dihydroxy-3-methoxy-6,8-di(3-3-methyl-2-buten-1-yl)-4H-benzopyran-4-one [Compound 49]
